Results published in the NIST ThermoML archive (doi:10.1016/j.jct.2016.01.002).

Test: xn = mol fraction of the nth substance listed
Conditions: 100 kPa, Liquid; for electrical conductivity: Direct current cell with electrodes; for mass density: Vibrating tube method; for viscosity: Concentric cylinders viscometry

[Cl][Fe]([Cl])[Cl] [ferric chloride] + CCCCn1cc[n+](C)c1.[Cl-]
Conditions	electrical conductivity [S/m]	mass density [kg/m3]	viscosity [mPa·s]
293.15 K, x1 = 0.3704	0.1033	1279.5	–
293.15 K, x1 = 0.4	0.172	1299.3	–
293.15 K, x1 = 0.4348	0.306	1322.8	–
293.15 K, x1 = 0.4545	0.406	1337.1	–
293.15 K, x1 = 0.4762	0.541	1352.4	–
293.15 K, x1 = 0.5	0.722	1369.9	–
293.15 K, x1 = 0.5238	0.675	1391.6	–
293.15 K, x1 = 0.5652	0.626	1433.4	–
293.15 K, x1 = 0.6	0.604	1468.1	–
298.15 K, x1 = 0.3704	0.1436	1275.8	195.6
298.15 K, x1 = 0.4	0.228	1295.2	123
298.15 K, x1 = 0.4348	0.387	1318.7	70.2
298.15 K, x1 = 0.4545	0.502	1332.9	51.1
298.15 K, x1 = 0.4762	0.658	1348.3	38.7
298.15 K, x1 = 0.5	0.864	1365.7	31.2
298.15 K, x1 = 0.5238	0.809	1387.4	30.1
298.15 K, x1 = 0.5652	0.747	1428.8	28.4
298.15 K, x1 = 0.6	0.719	1463.5	27.4
303.15 K, x1 = 0.3704	0.192	1271.9	–
303.15 K, x1 = 0.4	0.295	1291.2	–
303.15 K, x1 = 0.4348	0.478	1314.4	–
303.15 K, x1 = 0.4545	0.61	1328.8	–
303.15 K, x1 = 0.4762	0.786	1343.8	–
303.15 K, x1 = 0.5	1.011	1361.4	–
303.15 K, x1 = 0.5238	0.952	1383.4	–
303.15 K, x1 = 0.5652	0.878	1424.3	–
303.15 K, x1 = 0.6	0.84	1458.4	–
308.15 K, x1 = 0.3704	0.25	1268.1	–
308.15 K, x1 = 0.4	0.371	1287.4	–
308.15 K, x1 = 0.4348	0.582	1310.2	–
308.15 K, x1 = 0.4545	0.728	1324.8	–
308.15 K, x1 = 0.4762	0.926	1339.7	–
308.15 K, x1 = 0.5	1.18	1357.3	–
308.15 K, x1 = 0.5238	1.105	1378.9	–
308.15 K, x1 = 0.5652	1.017	1420	–
308.15 K, x1 = 0.6	0.973	1454.3	–
313.15 K, x1 = 0.3704	0.316	1264.2	–
313.15 K, x1 = 0.4	0.457	1283.3	–
313.15 K, x1 = 0.4348	0.696	1306.5	–
313.15 K, x1 = 0.4545	0.858	1320.6	–
313.15 K, x1 = 0.4762	1.07	1335.6	–
313.15 K, x1 = 0.5	1.35	1353.1	–
313.15 K, x1 = 0.5238	1.26	1374.5	–
313.15 K, x1 = 0.5652	1.16	1415.6	–
313.15 K, x1 = 0.6	1.114	1449.7	–
318.15 K, x1 = 0.3704	0.394	1260.6	–
318.15 K, x1 = 0.4	0.556	1279.6	–
318.15 K, x1 = 0.4348	0.823	1302.4	–
318.15 K, x1 = 0.4545	0.998	1316.7	–
318.15 K, x1 = 0.4762	1.233	1331.6	–
318.15 K, x1 = 0.5	1.535	1349	–
318.15 K, x1 = 0.5238	1.44	1370.4	–
318.15 K, x1 = 0.5652	1.325	1411.2	–
318.15 K, x1 = 0.6	1.26	1445.3	–
323.15 K, x1 = 0.3704	0.483	1256.7	–
323.15 K, x1 = 0.4	0.666	1275.7	–
323.15 K, x1 = 0.4348	0.961	1298.5	–
323.15 K, x1 = 0.4545	1.15	1312.6	–
323.15 K, x1 = 0.4762	1.4	1327.5	–
323.15 K, x1 = 0.5	1.726	1344.7	–
323.15 K, x1 = 0.5238	1.623	1366.2	–
323.15 K, x1 = 0.5652	1.5	1406.7	–
323.15 K, x1 = 0.6	1.423	1440.7	–
328.15 K, x1 = 0.3704	0.581	1253	–
328.15 K, x1 = 0.4	0.783	1271.8	–
328.15 K, x1 = 0.4348	1.108	1294.6	–
328.15 K, x1 = 0.4545	1.311	1308.7	–
328.15 K, x1 = 0.4762	1.58	1323.3	–
328.15 K, x1 = 0.5	1.929	1340.7	–
328.15 K, x1 = 0.5238	1.812	1361.9	–
328.15 K, x1 = 0.5652	1.67	1402.4	–
328.15 K, x1 = 0.6	1.59	1436.3	–
333.15 K, x1 = 0.3704	0.691	1249.2	–
333.15 K, x1 = 0.4	0.913	1267.8	–
333.15 K, x1 = 0.4348	1.27	1290.7	–
333.15 K, x1 = 0.4545	1.48	1304.6	–
333.15 K, x1 = 0.4762	1.76	1319.5	–
333.15 K, x1 = 0.5	2.14	1336.5	–
333.15 K, x1 = 0.5238	2.014	1357.7	–
333.15 K, x1 = 0.5652	1.85	1398	–
333.15 K, x1 = 0.6	1.76	1431.8	–
338.15 K, x1 = 0.3704	0.814	1245.5	–
338.15 K, x1 = 0.4	1.05	1263.9	–
338.15 K, x1 = 0.4348	1.436	1286.8	–
338.15 K, x1 = 0.4545	1.66	1300.6	–
338.15 K, x1 = 0.4762	1.96	1315.5	–
338.15 K, x1 = 0.5	2.35	1332.3	–
338.15 K, x1 = 0.5238	2.219	1353.2	–
338.15 K, x1 = 0.5652	2.042	1393.7	–
338.15 K, x1 = 0.6	1.936	1427.3	–
343.15 K, x1 = 0.3704	0.949	1241	–
343.15 K, x1 = 0.4	1.208	1260.3	–
343.15 K, x1 = 0.4348	1.614	1282.6	–
343.15 K, x1 = 0.4545	1.85	1296.7	–
343.15 K, x1 = 0.4762	2.16	1311.3	–
343.15 K, x1 = 0.5	2.58	1328.3	–
343.15 K, x1 = 0.5238	2.435	1349.2	–
343.15 K, x1 = 0.5652	2.24	1389.3	–
343.15 K, x1 = 0.6	2.12	1422.9	–
